# Results reported in ChEMBL document CHEMBL1201862, “PubChem BioAssay data set” (2004).
#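 Each compound was tested at five concentrations against cells in 96-well plates for 48 hours. GI50: concentration for 50% inhibition of growth.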 Activity calls are given as the source filed them. Cut-off read from the data, not from the text of the source: active = GI50 up to about 1.1 µM and inactive = higher. *1 amine or outer side, *2 acyl side, *3 side chain or, on linkers, in order; H or OH if unused. Where a SMILES comes first, the peptide text is derived from it. Bridges are numbered along the chain shown (N, C = ends). [ ]: non-standard residue; d: D form. The star is where a group is joined. X36 = O=C(C(CCCCNO[*:3])N[*:1])[*:2]; Fmoc = O=C(OCC1c2ccccc2-c2ccccc21)*
# Key:
# Assay in all cases: NCI-60 cell line screen, 48 h
# DMS-114 = test system: DMS-114
# M19-MEL = test system: M19-MEL
# DMS-273 = test system: DMS-273
# DLD-1 = test system: DLD-1
# XF498 = test system: XF498
# KM-20L2 = test system: KM-20L2
# HOP-18 = test system: HOP-18
# T47D = test system: T47D
structure (smiles),measurement,setting,value
CCOC(=O)[C@H]1Nc2ccc([N+](=O)[O-])cc2C2c3ccccc3CC21 (stereo partly specified),GI50,DMS-114,15.9 µM (inactive)
same,GI50,M19-MEL,20.8 µM (inactive)
same,GI50,DMS-273,12.6 µM (inactive)
same,GI50,DLD-1,25.4 µM (inactive)
same,GI50,XF498,30 µM (inactive)
same,GI50,KM-20L2,20.6 µM (inactive)
COc1cc2cc3c4c(cc(OC)c(OC)c4c2cc1OC)CCN3C(=O)CCCC(=O)O,GI50,DMS-114,> 100 µM (inactive)
same,GI50,M19-MEL,> 100 µM (inactive)
same,GI50,DMS-273,> 100 µM (inactive)
same,GI50,DLD-1,> 100 µM (inactive)
same,GI50,KM-20L2,> 100 µM (inactive)
Cc1cc2occ(C)c(=O)c2c2c1OC(C)(C)S2,GI50,DMS-114,> 100 µM (inactive)
same,GI50,M19-MEL,> 100 µM (inactive)
same,GI50,DMS-273,> 100 µM (inactive)
same,GI50,DLD-1,> 100 µM (inactive)
same,GI50,HOP-18,> 100 µM (inactive)
same,GI50,XF498,> 100 µM (inactive)
same,GI50,KM-20L2,> 100 µM (inactive)
CN(C)CCSc1cc(-c2ccccc2)c2ccccc2n1,GI50,T47D,15.4 µM (inactive)
Cc1ccccc1C1SCc2nc3ccccc3n21 (stereo unspecified),GI50,DMS-114,6.79 µM (inactive)
same,GI50,M19-MEL,> 100 µM (inactive)
same,GI50,DMS-273,4.6 µM (inactive)
same,GI50,DLD-1,> 100 µM (inactive)
same,GI50,HOP-18,> 100 µM (inactive)
CN(C)CCSS(=O)(=O)O,GI50,T47D,> 100 µM (inactive)
COC(=O)C1Cc2c([nH]c3ccccc23)-c2[nH]c3ccccc3c2CC(NC(C)=O)C(=O)NCC(=O)N1 (stereo unspecified),GI50,T47D,> 100 µM (inactive)
O=C1CS(=O)(=O)C(c2cccc(Oc3ccccc3)c2)N1c1cccc(Cl)c1 (stereo unspecified),GI50,T47D,16.9 µM (inactive)
N=C(N)/N=C(/C=C/c1ccccc1)CC1OC(=O)c2ccccc21 (stereo unspecified),GI50,DMS-114,> 100 µM (inactive)
same,GI50,M19-MEL,> 100 µM (inactive)
same,GI50,DMS-273,> 100 µM (inactive)
same,GI50,DLD-1,> 100 µM (inactive)
same,GI50,XF498,> 100 µM (inactive)
same,GI50,KM-20L2,> 100 µM (inactive)
CC(=O)c1ccc(Oc2c3ccccc3nc3ccccc23)cc1,GI50,T47D,3.72 µM (inactive)
Cc1oc2nc(N(C)C)n3nnnc3c2c1C,GI50,T47D,> 100 µM (inactive)
COc1ccc(OC)c2c1-c1nnnn1CCC2(C)C,GI50,T47D,> 100 µM (inactive)
C[C@H](NC1=C(Cl)C(=O)c2c(O)ccc(O)c2C1=O)C(=O)Nc1ccc([N+](=O)[O-])cc1,GI50,T47D,3.25 µM (inactive)
CN/C(=N\C#N)N(Cc1ccccc1)Cc1ccccc1,GI50,M19-MEL,> 100 µM (inactive)
same,GI50,DMS-273,> 100 µM (inactive)
same,GI50,DLD-1,> 100 µM (inactive)
same,GI50,XF498,> 100 µM (inactive)
same,GI50,KM-20L2,> 100 µM (inactive)
CC(C)C1/C(=N/O)CC(c2ccccc2)N(N=O)C1c1ccccc1 (stereo unspecified),GI50,T47D,39.6 µM (inactive)
O=C1NC(=S)NC1C(Cc1ccccc1)c1ccco1 (stereo unspecified),GI50,T47D,> 100 µM (inactive)
NC(=O)CNC(=O)C1CCCN1C(=O)C1CCCCNOC(=O)CCC(NC(=O)OCC2c3ccccc3-c3ccccc32)C(=O)NC(Cc2c[nH]c3ccccc23)C(=O)N1 (stereo unspecified) (Fmoc-EW[X36]PG-NH2; ester 1-3; configuration not given here),GI50,T47D,> 100 µM (inactive)
CCCN(C(=O)c1c(Cl)nnc(Cl)c1C(=O)c1cc(Cl)nnc1Cl)c1cc(Cl)nnc1Cl,GI50,T47D,4.55 µM (inactive)
c1ccc([B-]2(c3ccccc3)NCCCO2)cc1,GI50,T47D,34.9 µM (inactive)
O=C(NC1(C(=O)O)CC1c1ccccc1)c1ccccc1 (stereo unspecified),GI50,T47D,> 100 µM (inactive)
Cc1cc(O)nc(NNC(C#N)c2c(O)ccc3ccccc23)n1 (stereo unspecified),GI50,DMS-114,2.87 µM (inactive)
same,GI50,M19-MEL,4.68 µM (inactive)
same,GI50,DMS-273,3.87 µM (inactive)
same,GI50,DLD-1,3.42 µM (inactive)
same,GI50,HOP-18,4.49 µM (inactive)
same,GI50,KM-20L2,24.8 µM (inactive)
Cc1cc(O)c2c(c1)C(C1OC(CO)C(O)C(O)C1O)c1cc(O)cc(O)c1C2=O (stereo unspecified),GI50,T47D,> 100 µM (inactive)
CCN1C(=O)C(=C/C=C/c2ccc([N+](=O)[O-])cc2)C(=O)N(CC)C1=S,GI50,T47D,> 100 µM (inactive)
Cc1ccc(/N=C2/C(c3ccccc3)=C(SC3=C(c4ccccc4)/C(=N/c4ccc(C)cc4)c4ccccc43)c3ccccc32)cc1,GI50,T47D,33.3 µM (inactive)
CCOC(=O)CC(NC(=O)c1nc[nH]c1[N+](=O)[O-])C(=O)OCC (stereo unspecified),GI50,DMS-114,43.3 µM (inactive)
same,GI50,M19-MEL,82 µM (inactive)
same,GI50,DMS-273,40.6 µM (inactive)
same,GI50,DLD-1,39 µM (inactive)
CCOC(=O)COC1=Nc2cc(OC)c(OC)c3nc(Cl)cc(c23)C1=O,GI50,T47D,2.96 µM (inactive)
COc1cc(O)c2c(O)c3c(=O)oc(C)cc3c(OC)c2c1 [PAEPALANTINE],GI50,T47D,32.4 µM (inactive)
CCC1CC(C)=CCN1S(=O)(=O)c1ccc(C)cc1 (stereo unspecified),GI50,DMS-114,15.9 µM (inactive)
same,GI50,DMS-273,22 µM (inactive)
same,GI50,KM-20L2,19.2 µM (inactive)
O=S(=O)(c1cc(Cl)ccc1Cl)N1CCN(c2cccc(Cl)c2)CC1,GI50,T47D,> 100 µM (inactive)
CC1=CC(C)C/C=C/C2C3OC3(C)C(C)C3C(Cc4c[nH]c5ccccc45)NC(=O)C23C(=O)C=CC(=O)C1O (stereo unspecified),GI50,T47D,1.65 µM (inactive)
C[C@]12CCC(=O)C=C1CC[C@@H]1[C@@H]2CC[C@]2(C)C(=O)/C(=C/c3ccncc3)C[C@@H]12,GI50,T47D,15.9 µM (inactive)
O=C(/C=N/O)Nc1cc(Cl)c(Cl)cc1Cl,GI50,T47D,16.5 µM (inactive)
COc1cccc(NC(=O)CSc2nnc(Cc3ccccc3)o2)c1,GI50,DMS-114,> 100 µM (inactive)
same,GI50,M19-MEL,> 100 µM (inactive)
same,GI50,DMS-273,> 100 µM (inactive)
same,GI50,DLD-1,> 100 µM (inactive)
same,GI50,HOP-18,> 100 µM (inactive)
same,GI50,KM-20L2,> 100 µM (inactive)
O=C(O)c1ccccc1-c1ccccc1C(=O)c1ccccc1,GI50,T47D,> 100 µM (inactive)
Cc1cccc(Nc2cc(Cl)nc(SCC(=O)O)n2)c1C [PIRINIXIC ACID],GI50,T47D,> 100 µM (inactive)
O=C1c2cccc3cccc(c23)C(=O)N1CCCNCCCCNCCCN1C(=O)c2cccc3cccc(c23)C1=O,GI50,T47D,0.515 µM (active)
CCCN1C(=O)CC(C)N(Cc2ccccc2Cl)C1=S (stereo unspecified),GI50,T47D,10.6 µM (inactive)
CC(CCC#N)(CCC#N)C(=O)CC(O)(C(F)(F)F)C(F)(F)F,GI50,T47D,4.22 µM (inactive)
Cc1[nH]n(-c2nc(O)c(C)c(=O)[nH]2)c(=O)c1CCO,GI50,T47D,> 100 µM (inactive)
Cc1ccc(O)c(C(=O)/C=C/c2ccccc2)c1,GI50,T47D,> 100 µM (inactive)
CCOC(=O)/C(=C/c1ccccc1)N(CC)CC,GI50,DMS-114,> 100 µM (inactive)
same,GI50,M19-MEL,> 100 µM (inactive)
same,GI50,DMS-273,> 100 µM (inactive)
same,GI50,XF498,> 100 µM (inactive)
same,GI50,KM-20L2,> 100 µM (inactive)
CC1=NNC(=O)C1C1CC(c2c[nH]c3ccccc23)=NN=C1Cl (stereo unspecified),GI50,T47D,36.2 µM (inactive)
O=C(N/N=C(COc1ccccc1)\N=C\c1ccncc1)c1ccncc1,GI50,T47D,> 100 µM (inactive)
COc1cc(C=C2C(=O)NC(=S)NC2=O)cc(OC)c1OC,GI50,T47D,> 100 µM (inactive)
COc1ccc(/C=C/C(=O)N[C@@H]2C(=O)N3[C@@H]2SC(C)(C)[C@@H]3C(=O)O)cc1OC,GI50,T47D,> 100 µM (inactive)
CCC1=NC(N/N=C/c2ccco2)=N/C1=C\c1ccccc1O,GI50,T47D,48.9 µM (inactive)
CC(C)(CO)NC(=O)Nc1c(C(F)(F)F)cc(-c2ccccc2)[nH]c1=O,GI50,T47D,> 100 µM (inactive)
CC(=O)NC1C(OC2C(CO)OC(OCC3OC(n4ccc(N)nc4=O)C(O)C3O)C(NC(C)=O)C2O)OC(CO)C(O)C1O (stereo unspecified),GI50,T47D,> 100 µM (inactive)
COC(=O)[C@]12CSC[C@H]1C[C@H](c1cccc3ccccc13)N2,GI50,T47D,> 100 µM (inactive)
COC(O)C12OC3CO[Si](C(C)C)(C(C)C)O[Si](C(C)C)(C(C)C)OC3C1Oc1nc(=O)ccn12 (stereo unspecified),GI50,T47D,7.69 µM (inactive)
CC12Oc3ccc4ccccc4c3CC1Cc1c(ccc3ccccc13)O2 (stereo unspecified),GI50,DMS-114,60.1 µM (inactive)
same,GI50,M19-MEL,> 100 µM (inactive)
same,GI50,DMS-273,18.8 µM (inactive)
same,GI50,DLD-1,58.1 µM (inactive)
same,GI50,HOP-18,35.9 µM (inactive)
same,GI50,KM-20L2,> 100 µM (inactive)
COc1ccc(NC(=O)c2cc(NC(=O)/C=C/c3ccccc3)c(OC)c(OC)c2)cc1,GI50,T47D,8.91 µM (inactive)
N#Cc1sc2c(c1OC(=O)c1cccs1)c(=O)n(-c1ccccc1)c(=S)n2-c1ccccc1,GI50,T47D,10.9 µM (inactive)
Cc1ccc(OCCn2cc(Nc3ccccc3)c(=O)[nH]c2=O)cc1,GI50,T47D,> 100 µM (inactive)
